The first experiment has as its target T1, Aldo-keto reductase family 1 member B1 (Homo sapiens, UniProt P15121). The experiment is described as follows: Compound was evaluated for inhibition of human placental aldose reductase (HPAR) activity with glyceraldehyde as substrate.
Broadly, the IC50 is the concentration needed to halve the response being measured. `CCCCNS(=O)(=O)c1ccc(Cl)cc1C1NC(=O)NC1=O` (centres undefined) displayed an IC50 of 700 nM.
Consider `CS(=O)(=O)c1ccc(Cl)cc1C1NC(=O)NC1=O` (centres undefined), for which the midpoint of inhibition, the IC50, lay at 50 nM.
`C[S+]([O-])c1ccc(Cl)cc1C1NC(=O)NC1=O` (centres undefined) gave an IC50 of 250 nM.

A further experiment deals with T1, Aldo-keto reductase family 1 member B1. Description: Inhibition of human placental aldose reductase (HPAR) activity with glyceraldehyde as substrate.
The compound `CCCCCCS(=O)(=O)c1ccc(Cl)cc1C1NC(=O)NC1=O` (centres undefined) returned an IC50 of 230 nM.
For `CC(C)S(=O)(=O)c1ccc(Cl)cc1C1NC(=O)NC1=O` (centres undefined), the IC50 was 380 nM.
Same read-out and setting: to `O=C1NC(=O)C(c2cc(Cl)ccc2S(=O)(=O)NCc2ccccc2)N1` (centres undefined) belongs 30 nM.
For `O=C1NC(=O)C(c2cc(Cl)ccc2S(=O)(=O)CCc2ccc(Cl)cc2)N1` (centres undefined), the IC50 came to 220 nM.
On to `O=C1NC(=O)C(c2cc(Cl)ccc2S(=O)(=O)NCCCCc2ccccc2)N1` (centres undefined), for which the IC50 was determined as 5630 nM.
The compound `CCCCCS(=O)(=O)c1ccc(Cl)cc1C1NC(=O)NC1=O` (centres undefined) returned an IC50 of 50 nM.
The same measure, in the same setting: to `CCS(=O)(=O)c1ccc(Cl)cc1C1NC(=O)NC1=O` (centres undefined) belongs 180 nM; to `Cc1cc(Cl)cc(C2NC(=O)NC2=O)c1S(C)(=O)=O` (centres undefined), 270 nM; to `CCCCCNS(=O)(=O)c1ccc(Cl)cc1C1NC(=O)NC1=O` (centres undefined), 190 nM.
The same measure, in the same setting: to `O=C1NC(=O)C(c2cc(Cl)ccc2S(=O)(=O)Cc2ccc(Cl)cc2)N1` (centres undefined) belongs 270 nM; to `O=C1NC(=O)C(c2cc(Cl)ccc2S(=O)(=O)NCCCc2ccccc2)N1` (centres undefined), 100 nM.
As to `CNS(=O)(=O)c1ccc(Cl)cc1C1NC(=O)NC1=O` (centres undefined), the midpoint of inhibition, the IC50, lay at 130 nM.
`COc1ccc(F)cc1C1NC(=O)NC1=O` (centres undefined) displayed an IC50 of 7470 nM.
Turning to `O=C1NC(=O)C(c2cc(Cl)ccc2[S+]([O-])Cc2ccc(Cl)cc2)N1` (centres undefined), the IC50 was 470 nM.
In turn, `O=C1NC(=O)C(c2cc(Cl)ccc2SCc2ccc(Cl)cc2)N1` (centres undefined) came in with an IC50 of 1200 nM.
`CS(=O)(=O)c1ccc(F)cc1C1NC(=O)NC1=O` (centres undefined) had an IC50 of 610 nM.
With `O=C1NC(=O)C(c2cc(Cl)ccc2S(=O)(=O)Nc2ccc(F)cc2)N1` (centres undefined), half-maximal inhibition (IC50) was put at 230 nM.
`O=C1NC(=O)C(c2cc(Cl)ccc2S(=O)(=O)NCCc2ccccc2)N1` (centres undefined): half-maximal inhibition (IC50) was put at 1260 nM.
Compound `CS(=O)(=O)c1c(Cl)cc(Cl)cc1C1NC(=O)NC1=O` (centres undefined) yielded an IC50 of 610 nM.
Same read-out and setting: the value for `COc1ccc(Cl)cc1C1NC(=O)NC1=O` (centres undefined) was 3870 nM; that for `CSc1ccc(Cl)cc1C1NC(=O)NC1=O` (centres undefined) was 620 nM.
Compound `NS(=O)(=O)c1ccc(Cl)cc1C1NC(=O)NC1=O` (centres undefined) had an IC50 of 150 nM.
Compound `CN(C)S(=O)(=O)c1ccc(Cl)cc1C1NC(=O)NC1=O` (centres undefined) displayed an IC50 of 4470 nM.
Turning to `CCCNS(=O)(=O)c1ccc(Cl)cc1C1NC(=O)NC1=O` (centres undefined), the midpoint of inhibition, the IC50, lay at 580 nM.
Turning to `CS(=O)(=O)c1c(C2NC(=O)NC2=O)cc(Cl)cc1C(F)(F)F` (centres undefined), inhibition was half-maximal at 580 nM (IC50).
`CCCS(=O)(=O)c1ccc(Cl)cc1C1NC(=O)NC1=O` (centres undefined) gave a concentration for half-maximal inhibition (IC50) of 250 nM.
